Measured values as given in PMC9354243, “The Role of Tryptophan in π Interactions in Proteins: An Experimental Approach” (Journal of the American Chemical Society, 2022).
Like-named read-outs stand apart in the source and are kept apart here.

Key:
LmrR labeled with 5MeW = LmrR labeled with 5MeW (Lactococcus lactis subsp. cremoris, UniProt A2RI36); assay: SPR binding of drugs to immobilized LmrR labeled with 5MeW; settings: for Kd: Binding affinity, SPR, mean ± SD n = 3
From the text: (§1) LmrR binds different drugs including Dau and RBF.[19],[20] To investigate the importance of π–π interactions for drug binding, the electron density in the π electron cloud of W96 was modulated by progressive fluorination of the W96 indole side chain. The binding affinities of LmrR for Dau and RBF decreased upon increasing degrees of fluorination of W96 (Table 2, Figure S3). […] Dau behaved less extreme, with the kd […] 6-fold (Table 2).
(§2) The thermodynamics of the LmrR–Dau interaction was recently reported to be mostly entropy driven.[21] To investigate this point in more detail the temperature dependence of the LmrR–Dau interaction was studied by surface plasmon resonance (SPR) experiments at 10 and 25 °C. […] The average ΔΔG from 6 LmrR variants is around 0.1 kJ/mol. These values imply that the temperature effects on the ΔGs are negligible, which would be in line with a low contribution of entropic factors to the Dau–LmrR interaction.
(§3) The SPR assays can also inform on the kinetics of the LmrR-drug interaction, but for the assays at 25 °C, the kon and koff rates could not be analyzed properly, because the rates were too fast at those conditions. The koff rates increase when the electron density of the π-electron cloud in W96 decreases, in support of a sizable contribution of the π–π stacking interaction to the drug binding affinity. […]
(§4) MALDI-TOF. A purified LmrR solution (~6 mg/ml) was diluted to ~0.5 mg/ml with 100 mM NH4HCO3, and incubated with 5 µg/ml of trypsin during 2 h at 37 °C. 1 µl of digested LmrR was spotted, dried and quickly washed with 1 µl MilliQ water twice. Subsequently, 1 µl of matrix solution (10 mg/ml α- cyano-4-hydroxycinnamate (LaserBio Labs) in 50 % acetonitrile/0.1 % (v/v) trifluoroacetic acid) was spotted on top of the washed sample. Spots were measured using a Voyager DE-PRO MALDI-TOF (time of flight) instrument (Applied Biosystems). The incorporation efficiency of Trp analog was calculated after measuring the peak areas of the peptide conta ining either Trp or Trp analog.
(§5) Binding assays - surface plasmon resonance (SPR). LmrR and mutants were immobilized on a CM5 sensor chip and binding of drugs was monitored using a BIACORE3000 system. The binding responses of Dau and RBF to LmrR were measured in triplicate at both 25 °C and 10 °C, in HBS-EP running buffer (10 mM HEPES, pH 7.4, 150 mM NaCl, 50 µM EDTA, and 0.005% surfactant P-20). The binding responses were corrected by subtracting the response measured in the control lane, to which a […]
(§6) This protein, 4-oxalocrotonate tautomerase mutant Ala33Asp15 was a gift of J.-Y. van der Meer. Steady state responses after injection of serial dilutions of Dau and RBF were used for the determination of the dissociation constant (K d) values, using the BIAevaluation v.4.1 (GE Healthcare ) and GraphPad Prism v5.00 software . The One site-Total equation from GraphPad Prism software was used for the calculation of Kd as follows:
(§7) Y=Bmax*X/(Kd+X) + NS*X + Background . Equilibrium response Y is obtained at ligand concentration X.
(§8) Bmax represents the maximum specific binding response to the same sensorchip. NS is the slope of nonspecific binding in Y units divided by X units. […]
(§9) without addition of ligand. Binding free energies, ΔGs, were derived from the dissociation constant K d according to […].
(§10) Where possible, rate constants were determined using the BIAevaluation v.4.1 (GE Healthcare ) software. k off values were determined by fitting a 1:1 (Langmuir ) binding model . Each koff value is the average of 3 determinations.

W-LmrR = W-LmrR (Lactococcus lactis subsp. cremoris, UniProt A2RI36); assay: SPR binding of drugs to immobilized wild type LmrR (W-LmrR); settings: for Contribution of the π–π interactions to the total binding energy: extrapolation with 4,5,6,7tetraFW as baseline; for Kd: W (wild type) LmrR, SPR, mean ± SD n = 3
From the text: as §1, §2, §3, §4, §5, §6, §7, §8, §9, §10

4,5,6,7tetraFW-LmrR = 4,5,6,7tetraFW-LmrR (Lactococcus lactis subsp. cremoris, UniProt A2RI36); assay: biochemical; type: binding; settings: for Fold decrease of LmrR binding affinity, W-LmrR to 4,5,6,7tetraFW-LmrR: equals enhancement of affinity by π–π stacking; for Kd: Binding affinity, Kd, 4,5,6,7tetraFW LmrR, SPR, mean ± SD n = 3
From the text: LmrR binds different drugs including Dau and RBF.[19],[20] To investigate the importance of π–π interactions for drug binding, the electron density in the π electron cloud of W96 was modulated by progressive fluorination of the W96 indole side chain.
The thermodynamics of the LmrR–Dau interaction was recently reported to be mostly entropy driven.[21] To investigate this point in more detail the temperature dependence of the LmrR–Dau interaction was studied by surface plasmon resonance (SPR) experiments at 10 and 25 °C. […]
as §4, §5
This protein, 4-oxalocrotonate tautomerase mutant Ala33Asp15 was a gift of J.-Y. van der Meer. Steady state responses after injection

5,6,7triFW-LmrR = 5,6,7triFW-LmrR (Lactococcus lactis subsp. cremoris, UniProt A2RI36); assay: SPR binding of drugs to immobilized 5,6,7triFW-LmrR; settings: for Kd: Binding affinity, Kd, 5,6,7triFW LmrR, SPR, mean ± SD n = 3
From the text: as §1, §2, §3, §4, §5, §6, §7, §8, §9, §10

5FW-LmrR = 5FW-LmrR (Lactococcus lactis subsp. cremoris, UniProt A2RI36); assay: SPR binding of drugs to immobilized 5FW-LmrR; settings: for Kd: Binding affinity, SPR, mean ± SD n = 3
From the text: as §1, §2, §3, §4, §5, §6, §7, §8, §9, §10

5,6diFW-LmrR = 5,6diFW-LmrR (Lactococcus lactis subsp. cremoris, UniProt A2RI36); assay: SPR binding of drugs to immobilized 5,6diFW-LmrR; settings: for Kd: Binding affinity, Kd, 5,6diFW LmrR, SPR, mean ± SD n = 3
From the text: as §1, §2, §3, §4, §5, §6, §7, §8, §9, §10

RibU = target: RibU; set-up: method as in PMID 17289680; settings: cited from earlier work
RibU W68Y mutant = system: RibU W68Y mutant; set-up: method as in PMID 17289680; settings: W68Y mutant versus RibU; cited from earlier work
[1] = 5MeW LmrR, 25 °C, derived from Kd
[2] = 4,5,6,7tetraFW LmrR, 25 °C, derived from Kd
[3] = 5,6,7triFW LmrR, 25 °C, derived from Kd
[4] = 5FW LmrR, 25 °C, derived from Kd
[5] = 5,6diFW LmrR, 25 °C, derived from Kd

Sequence of 4,5,6,7tetraFW-LmrR (A2RI36 entry or part of it): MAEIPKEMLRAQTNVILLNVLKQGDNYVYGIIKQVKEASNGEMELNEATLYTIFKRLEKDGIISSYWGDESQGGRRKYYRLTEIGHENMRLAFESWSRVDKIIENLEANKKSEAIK
Sequence of W-LmrR (A2RI36 entry or part of it): as above
Sequence of 5FW-LmrR (A2RI36 entry or part of it): as above
Sequence of 5,6diFW-LmrR (A2RI36 entry or part of it): as above
Sequence of 5,6,7triFW-LmrR (A2RI36 entry or part of it): as above
Sequence of LmrR labeled with 5MeW (A2RI36 entry or part of it): as above

In the case of `COc1cccc2c1C(=O)c1c(O)c3c(c(O)c1C2=O)C[C@@](O)(C(C)=O)C[C@@H]3O[C@H]1C[C@H](N)[C@H](O)[C@H](C)O1` [Dau, Daunomycin], the koff (LmrR labeled with 5MeW) is reported as 0.2 ± 0.04 s⁻¹, the “ΔΔG, ΔG10 °C – ΔG25 °C” value (LmrR labeled with 5MeW; 5MeW LmrR) is reported as “–1.1 kJ/mol” and the “Free energy of ligand binding ΔG10 °C” value (LmrR labeled with 5MeW; 5MeW LmrR, 10 °C, derived from Kd) is reported as “–37.8 kJ/mol”. The “Free energy of ligand binding ΔG25 °C” value (LmrR labeled with 5MeW; [1]) was “–36.7 kJ/mol”, the Kd (LmrR labeled with 5MeW; 5MeW LmrR, 10 °C) was 104 ± 5 nM and the Kd (LmrR labeled with 5MeW; 5MeW LmrR, 25 °C) was 370 ± 30 nM. The koff (W-LmrR) was 0.4 ± 0.07 s⁻¹, the “Contribution of the π–π interactions as share of the total binding energy” value (W-LmrR; 25 °C) was 13% and the “Contribution of the π–π interactions to the total binding energy” value (W-LmrR; 25 °C) was -1.15 kcal/mol. For the same molecule, the Kd (W-LmrR; Binding affinity, Kd, 10 °C) was 315 ± 40 nM, the Kd (W-LmrR; Binding affinity, Kd, 25 °C) was 450 ± 50 nM and the “ΔΔG, ΔG10 °C – ΔG25 °C” value (W-LmrR; W LmrR) was 0.22 kcal/mol. For the same molecule, the “Free energy of ligand binding ΔG10 °C” value (W-LmrR; W LmrR, 10 °C, derived from Kd) was “–35.2 kJ/mol”, the “Free energy of ligand binding ΔG25 °C” value (W-LmrR; W LmrR, 25 °C, derived from Kd) was “–36.2 kJ/mol” and the koff (4,5,6,7tetraFW-LmrR) was 1.5 ± 0.09 s⁻¹. For the same molecule, the “ΔΔG, ΔG10 °C – ΔG25 °C” value (4,5,6,7tetraFW-LmrR; 4,5,6,7tetraFW LmrR) was 0.072 kcal/mol, the “Free energy of ligand binding ΔG10 °C” value (4,5,6,7tetraFW-LmrR; 4,5,6,7tetraFW LmrR, 10 °C, derived from Kd) was “–31.3 kJ/mol” and the “Free energy of ligand binding ΔG25 °C” value (4,5,6,7tetraFW-LmrR; [2]) was “–31.6 kJ/mol”. For the same molecule, the “Fold decrease of LmrR binding affinity, W-LmrR to 4,5,6,7tetraFW-LmrR” value (4,5,6,7tetraFW-LmrR; 25 °C) was 6 fold, the Kd (4,5,6,7tetraFW-LmrR; 10 °C) was 1680 ± 70 nM and the Kd (4,5,6,7tetraFW-LmrR; 25 °C) was 2880 ± 500 nM. For the same molecule, the koff (5,6,7triFW-LmrR) was 0.8 ± 0.1 s⁻¹, the “ΔΔG, ΔG10 °C – ΔG25 °C” value (5,6,7triFW-LmrR; 5,6,7triFW LmrR) was “–0.4 kJ/mol” and the “Free energy of ligand binding ΔG10 °C” value (5,6,7triFW-LmrR; 5,6,7triFW LmrR, 10 °C, derived from Kd) was “–33.7 kJ/mol”. For the same molecule, the “Free energy of ligand binding ΔG25 °C” value (5,6,7triFW-LmrR; [3]) was “–33.3 kJ/mol”, the Kd (5,6,7triFW-LmrR; 10 °C) was 590 ± 60 nM and the Kd (5,6,7triFW-LmrR; 25 °C) was 1440 ± 100 nM. For the same molecule, the koff (5FW-LmrR) was 0.6 ± 0.001 s⁻¹, the “ΔΔG, ΔG10 °C – ΔG25 °C” value (5FW-LmrR; 5FW LmrR) was 0.22 kcal/mol and the “Free energy of ligand binding ΔG10 °C” value (5FW-LmrR; 5FW LmrR, 10 °C, derived from Kd) was “–35.5 kJ/mol”. For the same molecule, the “Free energy of ligand binding ΔG25 °C” value (5FW-LmrR; [4]) was “–36.4 kJ/mol”, the Kd (5FW-LmrR; 5FW LmrR, 10 °C) was 280 ± 40 nM and the Kd (5FW-LmrR; 5FW LmrR, 25 °C) was 430 ± 80 nM. The “ΔΔG, ΔG10 °C – ΔG25 °C” value (5,6diFW-LmrR; 5,6diFW LmrR) was 0.048 kcal/mol, the “Free energy of ligand binding ΔG10 °C” value (5,6diFW-LmrR; 5,6diFW LmrR, 10 °C, derived from Kd) was “–33.9 kJ/mol” and the “Free energy of ligand binding ΔG25 °C” value (5,6diFW-LmrR; [5]) was “–34.1 kJ/mol”. The Kd (5,6diFW-LmrR; 10 °C) was 560 ± 50 nM and the Kd (5,6diFW-LmrR; 25 °C) was 1050 ± 60 nM.
In the case of `Cc1cc2nc3c(=O)[nH]c(=O)nc-3n(C[C@H](O)[C@H](O)[C@H](O)CO)c2cc1C` [RBF, riboflavin], the “Free energy of ligand binding ΔG25 °C” value (LmrR labeled with 5MeW; [1]) is reported as “–36.6 kJ/mol”, the Kd (LmrR labeled with 5MeW; 5MeW LmrR, 25 °C) is reported as 380 ± 8 nM and the “Contribution of the π–π interactions as share of the total binding energy” value (W-LmrR; 25 °C) is reported as 29%. The “Contribution of the π–π interactions to the total binding energy” value (W-LmrR; 25 °C) was -2.51 kcal/mol, the Kd (W-LmrR; 25 °C, read-out: Binding affinity, Kd) was 460 ± 50 nM and the “Free energy of ligand binding ΔG25 °C” value (W-LmrR; W LmrR, 25 °C, derived from Kd) was “–36.2 kJ/mol”. For the same molecule, the Kd (RibU) was roughly 1 nM, the “Free energy of ligand binding ΔG25 °C” value (4,5,6,7tetraFW-LmrR; [2]) was “–25.7 kJ/mol” and the “Fold decrease of LmrR binding affinity, W-LmrR to 4,5,6,7tetraFW-LmrR” value (4,5,6,7tetraFW-LmrR; 25 °C) was 70 fold. For the same molecule, the Kd (4,5,6,7tetraFW-LmrR; 25 °C) was 33400 ± 16000 nM, the “Free energy of ligand binding ΔG25 °C” value (5,6,7triFW-LmrR; [3]) was “–29.0 kJ/mol” and the Kd (5,6,7triFW-LmrR; 25 °C) was 8370 ± 200 nM. The “Free energy of ligand binding ΔG25 °C” value (5FW-LmrR; [4]) was “–34.3 kJ/mol”, the Kd (5FW-LmrR; 5FW LmrR, 25 °C) was 970 ± 50 nM and the “Free energy of ligand binding ΔG25 °C” value (5,6diFW-LmrR; [5]) was “–30.2 kJ/mol”. The Kd (5,6diFW-LmrR; 25 °C) was 4990 ± 60 nM and the “Fold drop of RBF binding affinity” value (RibU W68Y mutant) was roughly 100 fold.
